Measured values: US10676507B2, “Peptide and composition containing the same for anti-inflammation, anti-fibrosis, wound healing, and anticancer treatment” (GemVax & KAEL CO., LTD., priority 2015, dated 2020)

Columns and labels:
TNF-α [1] = assay: RT-qPCR of TNF-α mRNA expression in LPS-treated THP-1 cells; type: cell-based, human; settings: 1 μM, the lowest treatment concentration; FIG. 1
Description: (§1) An experiment was carried out using THP-1 cells (American Type Culture Collection (ATCC), Manassas, Va., USA), which is a human acute monocytic leukemia cell line. THP-1 cells were suspended in RPMI 1640 medium to a concentration of 1×10^5 cells per well in a 96 well plate and incubated for 24 hours. At this time, the THP-1 cells were treated with phorbol 12-myristate 13-acetate (PMA) (Sigma) to differentiate into macrophages.
The RT-qPCR test method was as follows. THP-1 cells were plated on a 6-well plate at a concentration of 2×10^6 cells/well and treated with 100 ng/mL of PMA for 24 hours to differentiate into macrophages. The media were removed and the differentiated THP-1 cells were washed twice with serum-free media (SFM), and then each novel peptide was treated with 10 ng/mL of LPS at each concentration of 1 μM, 5 μM, and 10 μM for 6 hours. RNA was extracted using RNeasy® Plus Mini Kit (Qiagen), and the extracted RNA was quantified and then cDNA synthesis was performed using a Reverse Transcription System (Promega). […]
All data are expressed as mean±standard error of the mean (S.E.M.), and statistical processing was performed by an ANOVA test. […] In addition, comparison between the groups was performed using a Tukey test and a p value less than 0.05 was determined as statistically significant.

TNF-α [2] = assay: ELISA of TNF-α amounts in LPS-induced THP-1 cells; type: cell-based, human; settings: all the concentrations (1 μM, 5 μM, 10 μM); FIG. 2
Description: as §1
The ELISA test method was as follows. THP-1, which is a monocyte cell line distributed from ATCC, was sub-cultured and prepared in the P3 stage, and the cell line was distributed into wells of a well plate and treated with PMA to differentiate into macrophages. The differentiated cells were treated with LPS to induce an inflammatory reaction (to induce the production of TNF-alpha), and were treated with each of the novel peptides at each concentration (1 μM, 5 μM, and 10 μM), and the amounts of TNF-α were measured by ELISA. Relative values for a non-inflammation group and a complete inflammation group were calculated, and estrogen (E2) was set as a positive control and a non-treated cell line not treated with the novel peptides was set as a general control to perform comparative analysis. E2 is known as a steroid that inhibits the production of TNF-α in THP-1.
All data are expressed as mean±standard error of the mean (S.E.M.), and statistical processing was performed by an ANOVA test. A SigmaStat statistical program was used and statistical analysis was performed using a Kruskal-Wallis test and a Mann-Whitney U-test. In addition, comparison between the groups was performed using a Tukey test and a p value less than 0.05 was determined as statistically significant.

wound-induced SD rats = assay: Wound area in full-thickness excision wound-induced animal model; type: in vivo, Sprague-Dawley (SD) rats; settings: 50 μL of 100 μg/mL applied every two days
Description: To confirm wound healing effects of the novel peptides Pep-WH-8, Pep-WH-9, Pep-WH-11, and Pep-WH-1, a wound-induced animal model was treated with each of the novel peptides, and then an experiment to confirm an effect of each peptide in producing collagen needed for a decrease in wound size and in a wound healing process was carried out as follows.
Sprague-Dawley (SD) rats were selected because mice have thin skins and it is difficult to uniformly induce a wound in mice. To exclude effects due to hormonal changes, male SD rats were selected and 6-week-old SD rats were purchased and acclimated for about 1 week. However, to more precisely obtain experimental results, an experiment was carried out after the 6-week-old SD rats became 11 weeks old. Since experimental animals are sensitive to olfactory responses and may attack other individual, individuals were separated from each other after wounds were formed, such as 1 rat for each cage, and observed.
The following method was used to form full-thickness excision in the prepared experimental animals. To induce anesthesia, a mixture of 10 mg/kg (body weight) of xylazine-HCl and 100 mg/kg (body weight) of ketamine HCl were intraperitoneally injected into the experimental animals or the experimental animals were administered the mixture via a respiratory anesthesia system. After the induction of anesthesia, hairs on the back of the experimental animal in a prone position were shaved cleanly, the back was disinfected with betadine, and then one circular full-thickness excision was made on a site apart from the highest portion of the back to each of left and right sides by a distance of about 1 cm, using a 16 mm punch. Separate dressing was not performed on the wound sites.
The full-thickness excision-induced animal model was divided into the following groups and a drug was applied on each group immediately after the formation of the excision and every two days. For the application method, a material was adjusted to a concentration of 1 mg/mL, and then, immediately before the experiment, the material was diluted 10 times to a concentration of 100 μg/mL. 50 μL of the material was applied dropwise on each excision.
[…] When the wounds were completely healed, the wound healing date was recorded. Generally, on about day 9, individuals with the wound sizes decreased to 5% of the initial wounds began to appear. The wound sites were photographed with a ruler, and then the acquired images were analyzed using the Image J program (NIH, USA) to calculate wound areas, and the wound areas were compared with each other.

TGF-β = assay: Western blotting of TGF-β signaling inhibition (pSmad2/3, Smad2/3) in HepG2 cell line; type: cell-based, human; settings: 10 μM peptide
Description: To identify an inhibitory effect of TGF-β, considered as the main cause of fibrosis, of the novel peptides Pep-WH-1 to Pep-WH-12, an experiment for confirming a TGF-β signaling inhibitory action in a HepG2 cell line was carried out as follows.
Reagents and materials used in the present experiment are as follows. Powder-type novel peptides were dissolved in 0.2 μm filtered sterile water, and then stored in the form of aliquots at −70° C., and, when in use, the stored peptides were thawed. A HepG2 cell line (ATCC HB-8065; American Type Culture Collection) was used, and recombinant human TGF-β was dissolved in 4 mM HCl to prepare a 10 μg/mL stock. SB431542 (Sigma) as a positive control was used after being prepared into 10 mM stock.
2×10^6 HepG2 cells (ATCC HB-8065) were seeded in a 60 mm petri dish, and then cultured in a CO2 incubator for 16 hours. Subsequently, the medium was replaced by a serum-free medium (SFM) and further cultured for 24 hours. Thereafter, the medium was replaced with 10 ng/mL of TGF-β1, and the HepG2 cells were treated with each of the novel peptides at each concentration (1 μM and 10 μM) and then cultured for 72 hours. Groups treated with the respective novel peptides were further cultured in a CO2 incubator at 37° C. for 1 hour.
To measure anti-fibrotic activities of the novel peptides, an experiment for measuring a degree of TGF-β signaling inhibition was carried out by western blotting, and a detailed description of the experimental method is as follows.
Cells treated with each peptide were washed twice with PBS, collected in a 1.5 mL EP tube using a cell scraper, and then centrifuged using a centrifugal separator (1,000 rpm, 4° C., 2 minutes) to remove the supernatant, and then 100 μL each was added to RIPA-treated HepG2 cells. The HepG2 cells were incubated on ice for 40 minutes, and then mixed by shaking every 10 minutes (vertex, micro-centrifuge pre-cooled to 4° C.), and each sample was mixed 40 times to 50 times using a 1 mL syringe. Lastly, the resulting mixture was centrifuged at 13,000 rpm for 15 minutes and the obtained supernatant was used.
30 μg of protein was subjected to 8% sodium dodecyl sulfate-polyacrylamide gel electrophoresis (SDS-PAGE) to be transferred to polyvinylidene difluoride (PVDF) membranes (Millipore). The PVDF membranes were blocked with 5% skim milk and incubated with particular primary antibodies. The antibodies used in this experiment are as follows: Smad 2/3 (60, 52 kDa, 5% BSA 1:1000, #3102, Cell signaling), pSmad2/3 (cell signaling #3102), and GAPDH (37 kDa, 5% BSA 1:1000, #2118, Cell signaling). Subsequently, the PVDF membranes were washed with tris-buffered saline containing 0.1% Tween-20 (TBST), and then reacted with an HRP-conjugated anti-rabbit antibody (manufactured by Jackson ImmunoResearch Laboratories, Inc.). Afterwards, ECL detection (Amersham Pharmacia Biotech) was performed thereon, and the acquired images were analyzed using an image analyzer (GE Healthcare, ImageQuant LAS 4000).
To measure TGF-β inhibitory effects, pSmad2/3 and Smad2/3 were used as TGF-β signaling activity markers, and GAPDH was used as a reference group in electrophoresis. The TGF-β signaling activity markers which were expressed at a high concentration as TGF-β was inhibited were used.
All data are expressed as mean±S.E.M., and statistical processing was performed by an ANOVA test. The SigmaStat statistical program was used and statistical analysis was performed using a Kruskal-Wallis test and a Mann-Whitney U-test. In addition, comparison between the groups was performed using a Tukey test and a p value less than 0.05 was determined as statistically significant.

[3] = day 1 after full-thickness excision
[4] = day 3 after full-thickness excision

Pep-WH-11: novel peptide prepared by the same method as Pep-WH-1; sequence not printed in Table 2 (ALSTRLRG; Pep-WH-11 peptide)
anti-inflammatory activity (TNF-α mRNA inhibition), comparison among peptides (TNF-α [1]): highest anti-inflammatory activity | inflammation-inducing activity (TNF-α amount) compared to E2 positive control (TNF-α [2]): lower inflammation-inducing activity | wound size compared to control (wound-induced SD rats; [3]): smaller wound size

ALSTRLRF (Pep-WH-6 peptide)
TGF-β inhibitory activity compared to positive control 10 μM SB431542 (TGF-β): higher TGF-β inhibitory activity

ALSSRLRF (Pep-WH-3 peptide)
TGF-β inhibitory activity compared to positive control 10 μM SB431542 (TGF-β): higher TGF-β inhibitory activity

ALTSKLRF (Pep-WH-12 peptide)
inflammation-inducing activity (TNF-α amount) compared to E2 positive control (TNF-α [2]): lower inflammation-inducing activity | TGF-β inhibitory activity compared to positive control 10 μM SB431542 (TGF-β): higher TGF-β inhibitory activity | wound size compared to control (wound-induced SD rats; [4]): smaller wound size

ALTSRVRA (Pep-WH-7 peptide)
TGF-β inhibitory activity compared to positive control 10 μM SB431542 (TGF-β): higher TGF-β inhibitory activity

ALTSRVRG (Pep-WH-8 peptide)
inflammation-inducing activity (TNF-α amount) compared to E2 positive control (TNF-α [2]): lower inflammation-inducing activity | wound size compared to control (wound-induced SD rats; [4]): smaller wound size

ALTSRVRF (Pep-WH-9 peptide)
inflammation-inducing activity (TNF-α amount) compared to E2 positive control (TNF-α [2]): lower inflammation-inducing activity | wound size compared to control (wound-induced SD rats; [3]): smaller wound size

ALSTRLRA (Pep-WH-4 peptide)
TGF-β inhibitory activity compared to positive control 10 μM SB431542 (TGF-β): higher TGF-β inhibitory activity

ALSTRLRG (Pep-WH-5 peptide)
TGF-β inhibitory activity compared to positive control 10 μM SB431542 (TGF-β): higher TGF-β inhibitory activity
